We go through one compound from publication PMC6382874, “Succinylation-dependent mitochondrial translocation of PKM2 promotes cell survival in response to nutritional stress” (Cell Death & Disease, 2019).

The subject of experiment [1] is PKM2 mitochondrial translocation. In words: PKM2 mitochondrial translocation (fractionation, western blot) in HCT116 cells. Conditions: 20 μM, glucose starvation, HCT116. In kind it is cell-based, human. The procedure:
(§1) Fig. 6 Compound 8 blocks PKM2 mitochondrial translocation under nutritional stress and inhibits tumor growth in vivo. a Compound 8 blocks glucose starvation induced PKM2 mitochondrial translocation. Isolation of mitochondria and immunoblot of PKM2, tubulin and Tom 40 were carried out with or without compound 8 treatment. b Compound 8 disrupts interaction of PKM2 and VDAC3. HCT116 cells were transfected with HA-tagged PKM2, cells were harvested and subjected to stag pull down after 8 h 20 µM compound 8 treatment. c Compound 8 induces VDAC3 for degradation. cells were harvested and evaluated VDAC3 protein levels after 8 h 10 or 20 µM compound 8 treatment. d, e Compound 8 caused a decrease in the rate of NADH oxidation. After 8 h of treatment with 20 µM compound 8, HCT116 cells mitochondria were isolated for NADH oxidation assays. NAD/NADH ratios in HCT116 cell lysates were evaluated by LC–MS. f Compound 8 inhibited ATP production in HCT116 cells. g The tumor volume (n = 7) of HCT116 xenografts from mice with intraperitoneal injection of compound 8 and vehicle control
HCT116 cells were harvested and washed two times with cold PBS. Cells were then homogenized in a buffer (220 mM mannitol, 70 mM sucrose, 2 mM EGTA, 5 mM MOPS-Tris pH 7.4, 2 mM Taurine, 0.2% BSA). The homogenate was spun for 5 min at 800g.The supernatant containing the cytoplasmic and mitochondrial fractions were transferred to a fresh tube and spun for 5 min at 12,000g. The pellet contained the mitochondrial fraction and the supernatant contained the cytoplasmic fraction.
Cells were lysed in buffer containing 50 mM Tris pH8.0, 2 mM EDTA, 150 mM NaCl, 0.5% Nonidet P-40, 10% glycerol and protease inhibitor PMSF. Western blot analysis was carried out based on standard methods. The following commercial antibodies were used as probes: anti-Flag antibody (Sigma, F3165), anti-HA antibody (Sigma, H3663), anti-α-Tubulin (EasyBio, BE0026–100), anti-PKM2 (RuiYingBio, RLT3777), anti-TOM 40 (Santa Cruz sc-365467), anti-succinyllysine antibody (PTM BIO PTM-901), anti-GAPDH (SanJian).
A general note: A western blot detects proteins with antibodies after separation by electrophoresis.

In the next experiment the test system is HCT116 cells. Briefly: ATP measurement, Cell Titer-Glo, HCT116 cells. Conditions: 10 or 20 μM, 8 h. It is filed as cell-based, human. The procedure: HCT116 cells were cultured in DMEM containing 10% FBS and seeded into six-well plates. Twenty-four hour after seeding, the medium was changed to DMEM containing 10 or 20 μM compound 8 for 8 h. ATP levels were measured using the Cell Titer-Glo Luminescent Cell Viability Assay (Promega).
(Cellular ATP, detected with luciferase, serves as a proxy for viable cell number.)

For a further experiment, the target named is T1, PKM2-VDAC3 interaction (Homo sapiens, UniProt P14618).
T1 construct: expressed in transfected cells; host or cells: HCT116
In words: PKM2-VDAC3 interaction, stag pull down in HCT116 cells. It is filed as cell-based. Conditions: 20 µM, 8 h. The procedure: as §1
About 2.5 mg whole cellular extracts were prepared in 700 μl RIPA buffer (50 mM Tris-HCl, pH 8.0, 150 mM NaCl, 1.5 mM MgCl2, 0.1% sodium dodecyl sulfate (SDS), 0.5% deoxycholate, 0.5% NP-40, 1 mM phenylmethylsulfonyl fluoride (PMSF), 1× protease inhibitor cocktail (Roche)). […]

In another experiment the target is PKM2 (Homo sapiens, UniProt P14618). In words: binding to PKM2 measured by MicroCal iTC200. Also noted: His-tag (N); made in house; host or cells: Escherichia coli BL21. The text has this:
We tested modifications of target compounds for PKM2 inhibitory activity.
Fig. 5 Identification and characterization of PKM2 inhibitors. a PKM2 inhibitors. […] It prints only the data set name 'Data: pkm2_NDH', so the substance label is left empty. / Panel b, N: small print, 0.941 ±0.0712, digits uncertain / Panel b, K: small print, 8.63E4 ±3.63E4, the digits 8, 6 and 3 are uncertain / Panel b, ΔH: small print, -5962 ±675.9, the digits 5, 9 and 6 are uncertain / Panel b, ΔS: small print, 2.59, the digits 5 and 9 are uncertain
Human cDNA for PKM2, PKM1, and VDAC3 were separately cloned into a pET28a (+) and pGEX-4T-1 vector with an N-terminal His-tag and N-terminal GST-tag and purified from the Escherichia coli strain BL21 (Invitrogen) using Ni–agarose beads and GST agarose beads (Qiagen) as described previously. PKL was purchased from Sino Biological Inc. in China.

In experiment [2] the test system is outer mitochondrial membrane permeability. In words: NADH oxidation assay in mitochondria isolated from HCT116 cells. It is filed as cell-based, human. Conditions: 20 µM, 8 h. On the procedure:
as §1, with “control […]” for “control”
NADH oxidation in the mitochondria was measured by resuspending mitochondria isolated from HCT116 cells after knockdown or overexpression of PKM2, K433E, K433R, PKM1, or treatment with 20 μM compound 8 for 8 h in 25 mM NADH. Absorbance was monitored at λ = 340 nm. […]

Chain of PKM2 (P14618 whole entry): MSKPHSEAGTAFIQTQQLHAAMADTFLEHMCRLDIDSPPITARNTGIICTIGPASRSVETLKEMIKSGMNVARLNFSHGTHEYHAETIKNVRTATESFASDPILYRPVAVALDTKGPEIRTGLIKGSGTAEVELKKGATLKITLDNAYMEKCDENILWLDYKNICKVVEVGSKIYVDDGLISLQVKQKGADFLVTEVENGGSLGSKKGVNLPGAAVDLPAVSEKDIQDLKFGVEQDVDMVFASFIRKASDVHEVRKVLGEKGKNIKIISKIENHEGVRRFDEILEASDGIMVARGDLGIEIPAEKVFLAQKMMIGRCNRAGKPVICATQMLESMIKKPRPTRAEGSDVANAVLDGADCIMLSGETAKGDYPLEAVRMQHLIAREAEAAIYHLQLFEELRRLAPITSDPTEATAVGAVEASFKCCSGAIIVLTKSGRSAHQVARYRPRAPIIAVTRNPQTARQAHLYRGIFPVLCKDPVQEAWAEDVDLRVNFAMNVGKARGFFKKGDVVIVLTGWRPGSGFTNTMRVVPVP
T1 sequence (P14618 whole entry): as above

In general, Kd refers to the equilibrium constant for the complex coming apart. A low value points to tighter binding. `CCCN(CCC)P(N)(=O)OCC1=CC(=O)c2ccccc2C1=O` (centres unmarked) [Compound 8]: the PKM2 mitochondrial translocation result in experiment [1] is “can restrain PKM2 mitochondrial translocation”. Also, the “cellular ATP production” value in the experiment on HCT116 cells is given as “inhibited cellular ATP production in a concentration-dependent manner”. Moreover, on PKM2-VDAC3 interaction, the “interaction of PKM2 with VDAC3” value is “abolished its interaction with VDAC3”. The same compound returned an equilibrium dissociation constant (Kd) on PKM2 of roughly 11 µM. Moreover, the “rate of NADH oxidation in purified mitochondria” value in experiment [2] is “reduced”.
